Results taken from patent US6545049B1, “Dimer-selective RXR modulators and methods for their use” (Ligand Pharmaceuticals Incorporated, priority 1995, dated 2003).

Columns and labels:
RXRβ = target: T1, RXRβ (Mus musculus, UniProt P28704); test: RXR binding, RXRβ; details: -v- tritiated LGD1069 and tritiated 9-cis retinoic acid
T1 sequence (P28704 1-520): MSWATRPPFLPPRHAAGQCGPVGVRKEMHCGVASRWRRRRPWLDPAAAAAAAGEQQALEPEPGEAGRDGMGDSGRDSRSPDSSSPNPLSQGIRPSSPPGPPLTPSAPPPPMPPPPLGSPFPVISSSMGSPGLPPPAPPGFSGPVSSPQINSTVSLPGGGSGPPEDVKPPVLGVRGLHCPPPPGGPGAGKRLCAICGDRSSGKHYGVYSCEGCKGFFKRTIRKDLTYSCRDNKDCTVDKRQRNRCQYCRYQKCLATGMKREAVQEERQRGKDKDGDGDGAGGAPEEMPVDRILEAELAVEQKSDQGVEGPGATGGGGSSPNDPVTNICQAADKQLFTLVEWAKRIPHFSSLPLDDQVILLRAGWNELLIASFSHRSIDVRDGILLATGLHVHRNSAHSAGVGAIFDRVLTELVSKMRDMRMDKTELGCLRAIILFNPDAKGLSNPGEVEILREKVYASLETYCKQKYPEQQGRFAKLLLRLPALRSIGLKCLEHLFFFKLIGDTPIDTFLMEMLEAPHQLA
Description: (§1) Non-specific binding was defined as that binding remaining in the presence of 500 nM of the appropriate unlabelled compound. At the end of the incubation period, bound from free ligand were separated. The amount of bound tritiated retinoids was determined by liquid scintillation counting of an aliquot (700 μL) of the supernatant fluid or the hydroxylapatite pellet.
(§2) After correcting for non-specific binding, IC50 values were determined. […] The IC50 value was determined graphically from a log-logit plot of the data. The Kd values were determined by application of the Cheng-Prussof equation to the IC50 values, the labeled ligand concentration and the Kd of the labeled ligand.

RXRγ = target: T2, RXRγ (Mus musculus, UniProt P28705); test: RXR binding, RXRγ; details: -v- tritiated LGD1069 and tritiated 9-cis retinoic acid
T2 sequence (P28705 1-463): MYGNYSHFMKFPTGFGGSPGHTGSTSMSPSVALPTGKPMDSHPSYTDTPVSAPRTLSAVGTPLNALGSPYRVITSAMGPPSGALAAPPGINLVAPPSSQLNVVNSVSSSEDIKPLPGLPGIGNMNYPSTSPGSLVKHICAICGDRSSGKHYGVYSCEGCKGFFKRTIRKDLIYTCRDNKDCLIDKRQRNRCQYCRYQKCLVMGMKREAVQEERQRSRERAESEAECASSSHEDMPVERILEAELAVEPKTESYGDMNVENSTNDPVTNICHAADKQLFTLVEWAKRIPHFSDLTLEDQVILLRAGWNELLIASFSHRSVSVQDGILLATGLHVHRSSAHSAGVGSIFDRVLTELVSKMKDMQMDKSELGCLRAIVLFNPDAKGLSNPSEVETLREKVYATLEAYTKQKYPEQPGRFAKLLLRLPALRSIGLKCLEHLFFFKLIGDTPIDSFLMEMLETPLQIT
Description: as §1, §2

RXRα = target: T3, RXRα (Homo sapiens, UniProt P19793); test: RXR binding, RXRα; details: -v- tritiated LGD1069 and tritiated 9-cis retinoic acid
T3 sequence (P19793 1-462): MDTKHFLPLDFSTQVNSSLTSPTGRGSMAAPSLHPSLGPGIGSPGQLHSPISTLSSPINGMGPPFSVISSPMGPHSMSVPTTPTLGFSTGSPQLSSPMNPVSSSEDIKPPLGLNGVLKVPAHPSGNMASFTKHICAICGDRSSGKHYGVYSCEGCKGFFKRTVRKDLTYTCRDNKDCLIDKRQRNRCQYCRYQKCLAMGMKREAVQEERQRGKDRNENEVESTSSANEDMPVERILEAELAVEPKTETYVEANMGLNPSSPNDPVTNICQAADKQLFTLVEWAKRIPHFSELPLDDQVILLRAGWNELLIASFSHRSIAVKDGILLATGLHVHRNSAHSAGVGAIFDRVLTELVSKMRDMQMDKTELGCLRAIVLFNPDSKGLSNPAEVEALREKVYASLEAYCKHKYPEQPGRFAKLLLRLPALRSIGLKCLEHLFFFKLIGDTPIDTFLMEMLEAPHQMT
Description: as §1, §2

Row | Structure (SMILES) | Kd (RXRβ) | Kd (RXRγ) | Kd (RXRα) | melting point
1 | CCCCCCCOc1cc2c(cc1\C(C)=C/C=C/C(C)=C/C(=O)O)C(C)(C)CCC2(C)C [Compound 173, (2E, 4E, 6Z)-7-[3-heptyloxy-5,6,7,8-tetrahydro-5,5,8,8-tetramethyl-2-naphthalen-2-yl]-3-methyl-octa-2,4,6-trienoic acid] | 12 nM | 21 nM | 4 nM | –
2 | C=C(c1ccc(C(=O)O)cc1)c1cccc2cc3c(cc12)C(C)(C)CCC3(C)C [Compound 142, 4-[1-(5,6,7,8-tetrahydro-5,5,8,8-tetramethyl-anthracen-1-yl)vinyl)benzoic acid] | 90 nM | 50 nM | 27 nM | –
3 | Cc1cc2c(cc1C(=O)c1ccc(C(=O)NOCc3ccccc3)cc1)C(C)(C)CCC2(C)C [Compound 105, 4-[(3,5,5,8,8-pentamethyl-5,6,7,8-tetrahydro-2-naphthyl)carbonyl]benzoic acid O-benzyloxime] | – | – | – | 169 to 172 °C
4 | CCCCCCCOc1c(/C(C)=C/C=C/C(C)=C/C(=O)O)cc(C(C)C)cc1C(C)C [Compound 146, (2E, 4E, 6E)-7-(3,5-diisopropyl-2-n-heptyloxyphenyl)-3-methylocta-2,4,6-trienoic acid] | 100 nM | 116 nM | 46 nM | –
5 | CCCOc1cc2c(cc1C1=C(/C=C/C(C)=C/C(=O)O)CCC1)C(C)(C)CCC2(C)C [Compound 158, (2E, 4E)-5-[2-(5,5,8,8-tetramethyl-3-propyloxy-5,6,7,8-tetrahydronaphthalen-2yl)cyclopent-1-en-1-yl]-3-methyl pentadienoic cid] | 53 nM | 106 nM | 21 nM | –
6 | COc1ccc(COc2cc3c(cc2/C(C)=C/C=C/C(C)=C/C(=O)O)C(C)(C)CCC3(C)C)cc1 [Compound 174, (2E, 4E, 6E)-7-[3-(4-methoybenzyloxy)-5,6,7,8-tetrahydro-5,5,8,8-tetramethyl-2-naphthalen-2-yl]-3-methyl-octa-2,4,6-trienoic acid] | 43 nM | 46 nM | 5 nM | –
7 | CCCCCCCOc1c(C(C)C)cc(C(C)C)cc1C(C)C/C=C/C(C)=C\C(=O)O (stereo not shown) [Compound 149, (2Z, 4E)-7-(3,5-diisopropyl-2-n-heptyloxyphenyl)-3-methylocta-2,4-dienoic acid] | 37 nM | 42 nM | 16 nM | –
8 | CC1(C)CCC(C)(C)c2cc(C(=O)c3ccc(C(=O)NO)cc3)c(OCc3ccc(Br)cc3)cc21 [Compound 161, 4-[(3-(4-bromobenzyloxy)-5,6,7,8-tetrahydro-5,5,8,8-tetramethyl-2-naphthyl)carbonyl]benzoic acid oxime] | – | – | – | 221 to 223.5 °C
9 | CC(C=CC=C(C)c1cc2c(cc1OCC(C)C)C(C)(C)CCC2(C)C)=CC(=O)O [Compound 169, (2E, 4E, 6Z)-7-[3-isobutyloxy-5,6,7,8-tetrahydro-5,5,8,8-tetramethyl-2-naphthalen-2-yl]-3-methyl-octa-2,4,6-trienoic acid] | 14 nM | 31 nM | 5 nM | –
10 | CCCCCCCOc1c(C(C)C)cc(C(C)C)cc1C(C)C/C=C/C(C)=C/C(=O)O (stereo not shown) [Compound 148, (2E, 4E)-7-(3,5-diisopropyl-2-n-heptyloxyphenyl)-3-methylocta-2,4-dienoic acid] | 87 nM | 84 nM | 53 nM | –
11 | CCCCCCOc1cc2c(cc1/C(C)=C/C=C/C(C)=C/C(=O)O)C(C)(C)CCC2(C)C [Compound 125, (2E, 4E, 6E)-7-[3-hexyloxy-5,6,7,8-tetrahydro-5,5,8,8-tetramethyl-2-naphthalen-2-yl]-3-methylocta-2,4,6-trienoic acid] | 145 nM | 186 nM | 56 nM | –
12 | CCCCCOc1cc2c(cc1/C(C)=C/C=C/C(C)=C/C(=O)O)C(C)(C)CCC2(C)C [Compound 170, (2E, 4E, 6E)-7-[3-pentyloxy-5,6,7,8-tetrahydro-5,5,8,8-tetramethyl-2-naphthalen-2-yl]-3-methyl-octa-2,4,6-trienoic acid] | 41 nM | 78 nM | 11 nM | –
13 | CCCCOc1cc2c(cc1C(=O)c1ccc(C(=O)O)cc1)C(C)(C)CCC2(C)C [Compound 111, 4-[(3-butyloxy-5,6,7,8-tetrahydro-5,5,8,8-tetramethyl-2-naphthyl)carbonyl]benzoic acid] | – | – | – | 207 to 210 °C
14 | CCCCCCCOc1cc2c(cc1C=Cc1ccc(C(=O)O)cc1)C(C)(C)CCC2(C)C [Compound 116, 4-[(3-heptyloxy-5,6,7,8-tetrahydro-5,5,8,8-tetramethyl-2-naphthyl)ethenyl]benzoic acid] | – | – | – | 153 to 155 °C
15 | CCCOc1cc2c(cc1C(C)C/C=C/C(C)=C/C(=O)O)C(C)(C)CCC2(C)C (stereo not shown) [Compound 175, (2E, 4E)-7-[3-propoxy-5,6,7,8-tetrahydro-5,5,8,8-tetramethyl-2-naphthalen-2-yl]-3-methyl-octa-2,4-dienoic acid] | 21 nM | 31 nM | 11 nM | –
16 | CCCCCCCOc1cc2c(cc1C(=O)c1ccc(C(=O)NO)cc1)C(C)(C)CCC2(C)C [Compound 115, 4-[(3-heptyloxy-5,6,7,8-tetrahydro-5,5,8,8-tetramethyl-2-naphthyl)carbonyl]benzoic acid oxime] | – | – | – | 200 to 205 °C
17 | CCCCCCONC(=O)c1ccc(C(=O)c2cc3c(cc2C)C(C)(C)CCC3(C)C)cc1 [Compound 106, 4-[(3,5,5,8,8-pentamethyl-5,6,7,8-tetrahydro-2-naphthyl)carbonyl]benzoic acid O-hexyloxime] | – | – | – | 91 to 95 °C
18 | CCCc1cc2c(cc1C(=O)c1ccc(C(=O)O)cc1)C(C)(C)CCC2(C)C [Compound 101, 4-[(3-n-propyl-5,6,7,8-tetrahydro-5,5,8,8-tetramethyl-2-naphthyl)carbonyl]benzoic acid] | – | – | – | 252 to 254 °C
19 | CC1(C)CCC(C)(C)c2cc(C3(c4ccc(C(=O)O)cc4)OCCO3)c(OCc3ccccc3)cc21 [Compound 164, 4-[2-(3-benzyloxy-5,6,7,8-tetrahydro-5,5,8,8-tetramethyl-2-naphthyl)-[1,3]dioxolan-2-yl]benzoic acid] | – | – | – | 222 to 228 °C (dec.)
20 | CON=C(c1ccc(C(=O)O)cc1)c1cc2c(cc1OCc1ccccc1)C(C)(C)CCC2(C)C [Compound 163, trans-4-[(3-benzyloxy-5,6,7,8-tetrahydro-5,5,8,8-tetramethyl-2-naphthyl)carbonyl]benzoic acid O-methyloxime] | 6 nM | 6 nM | 2 nM | –
21 | CCOc1cc2c(cc1C=Cc1ccc(C(=O)O)cc1)C(C)(C)CCC2(C)C [Compound 107, 4-[(3-ethoxy-5,6,7,8-tetrahydro-5,5,8,8-tetramethyl-2-naphthyl)ethenyl]benzoic acid] | – | – | – | 195 to 200 °C (dec.)
22 | CCCCOc1cc2c(cc1C=Cc1ccc(C(=O)O)cc1)C(C)(C)CCC2(C)C [Compound 112, 4-[(3-butyloxy-5,6,7,8-tetrahydro-5,5,8,8-tetramethyl-2-naphthyl)ethenyl]benzoic acid] | – | – | – | 194 to 196 °C
23 | COC(C)(c1ccc(C(=O)O)cc1)c1cccc2cc3c(cc12)C(C)(C)CCC3(C)C (stereo not shown) [Compound 141, 4-[1-methoxy-1-(5,6,7,8-tetrahydro-5,5,8,8-tetramethyl-anthracen-1-yl)ethyl)benzoic acid] | 13 nM | 70 nM | 49 nM | –
